Assay results from patent publication US20190117675A1, “Compositions And Methods To Treat And/Or Prevent Vision Disorders Of The Lens Of The Eye” (Helix Holding Company, priority 2014, published 2019).
“Also recorded” adds a separate entry of the source.

Legend:
[1] = test system: aA-crystallin-Y118D and aB-crystallin-R120G; test: Dissolving of accumulated crystal protein in cells carrying two crystallin mutant plasmids; assay type: cell-based; settings: 10 uM, compared with 1% DMSO solution
Description: FIG. 13. Two mutant crystal proteins were introduced into cells. The accumulated crystal protein were treated by adding different agents.
Cyclopentanoperhy drophenanthrene compounds of the present invention refers to a compound containing cyclopentanoperhy drophenanthrene skeleton structure, including its derivatives. After the two crystal protein mutant plasmid aA-crystallin-Y118D and aB-crystallin-R120G were introduced into cells, we investigated the lanosterol and its derivatives as well as cholesterol (Cholesterol) for their effects on intracellular accumulation of crystal protein. Not all cyclopentanoperhy drophenanthrene compound have the same effect.

[2] = test system: various cataract-causing crystallin mutants; test: Aggresome / intracellular aggregate formation of crystallin mutants in transfected cells (confocal microscopy); assay type: cell-based; settings: 0-40 μM sterols in 2% DMSO, 2 h treatment then 12 h culture; lanosterol effect dose-dependent
Description: The effect of lanosterol or cholesterol on the aggresome formation of various crystallins was studied by transfecting the cells using plasmids containing various crystallin genes. The cells were cultivated for 24 h to enable efficient protein expression and aggresome formation. Then the cells were treated with 0-40 μM sterols in 2% DMSO. The cells treated with 2% DMSO were used as the control. After treatment for 2 h, the cells were moved to fresh DMEM medium containing 10% fetal bovine serum and further cultivated for 12 h. Then the cells were used for microscopy analysis.
The microscopy samples were prepared by washing the slips by phosphate buffered saline (PBS) three times. The cells were fixed with 4% paraformaldehyde for 40 min followed by three times washing with PBS. The cells were permeabilized with 0.1% Triton X-100 (Sigma) in PBS for 10 min and blocked with 5% normal goat serum in PBS for 1 h at 37° C. Immunostaining was carried out by adding mouse anti-Flag antibody (1:500) or anti-p62 antibody (1:200) in PBS buffer containing 5% normal goat serum and cultivated for 1 h at 37° C. Then the slips were washed three times with PBS, and further incubated with Alexa 649-conjugated goat anti-mouse IgG (1:250) for 1 h at ambient temperature. The nuclei were counterstained with Hoechst 33342. The mounted cells were analyzed using a Carl Zeiss LSM 710 confocal microscope.

[3] = test system: aggregates of various WT and mutated crystallins; test: In vitro protein assay: dissociation of preformed crystallin aggregates (turbidity, soluble protein, EM); assay type: biochemical; settings: 37° C.
Description: Evaluation of the effect of lanosterol on the dissolution of crystallin aggregates by turbidity. Crystallin aggregates were formed by incubating 5mgml21 protein solution at 60° C. for 2 h (α-crystallins) or 37° C. for 48 h (β- and γ-crystallins) in the presence of 1M guanidine chloride. The preformed aggregates were re-suspended in PBS at a final protein concentration of 0.2 mg/ml and were treated with 500 μM sterols in 500 μM DPPC liposome and incubated at 37° C. for 24 h. Aggregates treated with 500 μM DPPC liposome only were used as the controls.
The α-crystallin aggregates were formed by incubating 5 mg/ml protein solutions at 60° C. for 48 h in the presence of 1 M guanidine chloride. The β- and γ-crystallin aggregates were prepared by incubating the protein solutions at 37° C. and pH 3 for 48 h. The preformed aggregates were re-suspended in PBS with a final protein concentration of 0.1 mg/ml. The re-suspended aggregates were treated by 50 μM sterols in 50 μM DPPS liposome and incubated at 37° C. for 144 h. The aggregates treated by 50 μM DPPS liposome were used as the controls. The supernatant and precipitation fractions were separated by centrifugation. The protein concentrations in the supernatant fraction were determined by absorbance at 280 nm and the percentages of the soluble proteins were calculated from three independent repetitions.
The recombinant his-tagged WT and mutated β- and γ-crystallin proteins were overexpressed in E. coli Rosetta and purified by Ni-NTA affinity column followed by gel filtration chromatography using the same protocol as those described elsewhere 13,14,16,18. The overexpression and purification of the non-tagged αA- and αB-crystallins were performed as described previously 19. The purity of the proteins were estimated to be above 95% as evaluated by one homogeneous band on 12.5% SDS-PAGE, 10% native-PAGE and a single peak in the size-exclusion chromatographyprofile. The protein concentration was determined according to the Bradford method by using BSA as the standard 20. All protein samples were prepared in 20 mM PBS buffer containing 150 mM NaCl, 1 mM EDTA and 1 mM DTT.
(§1) The aggregates of the WT and mutated αA- and αB-crystallin proteins were obtained by heating the proteins solutions containing 1 M guanidine chloride (ultrapure, Sigma) with a concentration of 5 mg/ml at 60° C. for 48 h. The aggregates of the WT and mutated β- and γ-crystallins were prepared by heating the protein solutions at pH 3 and 37° C. for 48 h. The formation of aggregates was confirmed by turbidity (absorbance at 400 nm) and transmission electron microscope (EM) measurements. The preformed aggregates were resuspended in 20 mM PBS with a final concentration of 0.1 mg/ml (approximately 5 μM). The resuspended aggregates were treated by 50 μM lanosterol or cholesterol in liposomes formed by 50 μM DPPS at 37° C. After 72 h treatment, the protein solutions were used for negative-stained EM observations. After 144 h incubation, the protein solutions were used for turbidity measurements and determinations of protein concentrations in the soluble fractions. The soluble proteins were determined by centrifuge the protein solutions to separate the supernatant and precipitation fractions. Then the protein concentration in the supernatant was determined by the Bradford method. The EM samples were prepared by depositing the protein solutions onto a freshly glow-discharged carbon coated copper grid. […]

[4] = molecular target: T1, αB-crystallin R120G mutant (Homo sapiens, UniProt P02511, R120G); test: Negative-stain EM of aggregates treated with sterol in liposome; assay type: biochemical; settings: negatively stained EM
T1 construct: made in house
T1 sequence (P02511 1-175 R120G): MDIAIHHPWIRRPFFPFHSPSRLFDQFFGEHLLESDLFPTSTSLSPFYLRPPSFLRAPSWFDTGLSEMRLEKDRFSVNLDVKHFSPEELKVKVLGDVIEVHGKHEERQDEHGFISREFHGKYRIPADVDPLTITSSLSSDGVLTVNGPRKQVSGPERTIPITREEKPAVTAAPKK
Description: Representative negatively stained EM pictures of the aggregates of αB-crystallin R120G mutant treated by liposome, lanosterol in liposome and cholesterol in liposome, respectively. The EM samples were stained by 1.25% uranyl acetate.
Quantitative analysis was performed by calculating the number of particles with length over 50 nm from six randomly picked viewing field. Each viewing field contained 30-50 particles.
as §1, with “After 72 h treatment, the protein solutions were used for negative-stained EM observations. After 144 h incubation, the protein solutions were used for turbidity measurements and determinations of protein concentrations in the soluble fractions.” left out, “method.” for “method. The EM samples were prepared by depositing the protein solutions onto a freshly glow-discharged carbon coated copper grid.”

SMILES: CC(C)CCC[C@@H](C)[C@H]1CC[C@H]2C3=CC[C@H]4C[C@@H](O)CC[C@]4(C)[C@H]3CC[C@]12C [5α-cholest-7-en-3β-ol]
- dissolving of accumulated crystal protein [1]: significant dissolving of the accumulated crystal protein
- dissolving of accumulated crystal protein ([1]; listed as 5a-cholest-7-en-3β-ol): significantly dissolve accumulated crystals protein

SMILES: CC(C)[C@@H](C)/C=C/[C@@H](C)[C@H]1CC[C@H]2C3=CC=C4C[C@@H](O)CC[C@]4(C)[C@H]3CC[C@]12C [ergosterol]
- dissolving of accumulated crystal protein [1]: significantly dissolve accumulated crystals protein; also recorded: significant dissolving of the accumulated crystal protein

SMILES: CC(C)CCC[C@@H](C)[C@H]1CC[C@H]2[C@@H]3CC=C4C[C@@H](O)CC[C@]4(C)[C@H]3CC[C@]12C [Cholesterol, reference compound]
- intracellular aggregation of various cataract-causing crystallin mutants [2]: did not affect the formation of intracellular aggregates
- dissolution of crystallin aggregates by turbidity ([3]; 500 μM sterols in 500 μM DPPC liposome, 24 h, 0.2 mg/ml protein): could not
- dissociation of aggregates of various WT and mutated crystallins ([3]; in vitro protein assay, 50 μM sterol in 50 μM DPPS liposome): could not and not
- dissociation of aggregates formed by αB-crystallin R120G mutant (number of particles with length over 50 nm) [4]: not
- dissolving of accumulated crystal protein [1]: cannot effectively dissolve

SMILES: CC(C)=CCC[C@@H](C)[C@H]1CC[C@H]2C3=C(CC[C@]12C)[C@@]1(C)CC[C@H](O)C[C@@H]1CC3 [Zymosterol, 5α-Cholesta-8,24-dien-3β-ol]
- dissolving of accumulated crystal protein [1]: significant dissolving of the accumulated crystal protein
- dissolving of accumulated crystal protein ([1]; listed as zymosterol): significantly dissolve accumulated crystals protein

SMILES: CC(C)CCC[C@@H](C)[C@H]1CC[C@H]2[C@@H]3CC[C@H]4C[C@@H](O)CC[C@]4(C)[C@H]3CC[C@]12C [β-cholestanol]
- dissolving of accumulated crystal protein [1]: significantly dissolve accumulated crystals protein; also recorded: significant dissolving of the accumulated crystal protein

SMILES: CC(C)=CCC[C@@H](C)[C@H]1CC[C@@]2(C)[C@@H]3CC[C@H]4C(C)(C)[C@@H](O)CC[C@]4(C)C3=CC[C@]12C [Parkeol]
- dissolving of accumulated crystal protein [1]: significant dissolving of the accumulated crystal protein
- dissolving of accumulated crystal protein ([1]; listed as parkeol): significantly dissolve accumulated crystals protein
